# Assay results published in article PMC7073886, “Structure–Bioactivity Relationships of Lapatinib Derived Analogs against Schistosoma mansoni” (ACS Medicinal Chemistry Letters, 2020).
# Assays:
# [1] = Log D7.4 shake-flask octanol-water; type: physicochemical; settings: pH 7.4
# Experimental: Log D7.4. Shake-flask octanol-water distribution coefficient was determined at pH 7.4 (Log D7.4). The aqueous solution used is 10 mM sodium phosphate pH 7.4 buffer. The method has been validated for Log D7.4 ranging from -2 to 5.0.
# Human Plasma Protein Binding (PPB). PPB was determined using equilibrium dialysis (RED device) to separate free from bound compound. The amount of compound in plasma (10 µM initial concentration) and in dialysis buffer (pH 7.4 phosphate buffer) was measured by LC-MS/MS after equilibration at 37 °C in a dialysis chamber. The fraction unbound (fu) is reported.
# Human Liver Microsomal Clint. In vitro intrinsic clearance was determined from human liver microsomes using a standard approach.11 Following incubation and preparation, the samples were analyzed using […]
# Rat Hepatocyte Clint. In vitro intrinsic clearance was determined from rat hepatocytes using a standard approach.11 Following incubation and preparation, the samples were analyzed using LC/MS/MS. Refined […]
# Calculated LogP and LogD values. Both LogP and LogD predictions are based on a modified version of the method12 where the predicted partition coefficients are composed of the molecules’ atomic increments.
# General Chemistry. All starting materials were commercially obtained and were used without further purification, unless specified. Reaction solvents were purified by passage through alumina columns on a purification system manufactured by Innovative Technology (Newburyport, MA). NMR spectra were obtained on Varian NMR systems, operating at 400 or 500 MHz for 1 H acquisitions. LCMS analysis was performed using a Waters AllianceHT e2795 reverse phase HPLC (Waters SunFire C18 4.6 × 50 mm, 3.5 μm column), with a Waters 2996 photodiode array detector scanning from 210 nm to 600 nm, and Waters Micromass ZQ detector (electrospray ionization). Where required, final compounds were purified by preparative reverse phase HPLC (columns Waters Symmetry RP8 30 × 50 mm, 5 μm column, or OBD RP18 30 × 50 mm, 5 μm), with a single wavelength UV−visible detector and Waters Micromass ZQ (electrospray ionization).
# [2] = tested on: adult S. mansoni; assay: Phenotypic screen of adult S. mansoni worms, severity scores and descriptors; type: cell-based, Schistosoma mansoni; settings: for Descriptors (10 µM) 1 h / Severity Scores (10 μM) 1 h / Descriptors (10 µM) 5 h / Severity Scores (10 μM) 5 h / Descriptors (10 µM) 24 h / Severity Scores (10 μM) 24 h / Descriptors (10 µM) 48 h / Severity Scores (10 μM) 48 h: adult S. mansoni; for Descriptors (10 µM) 1 h / Descriptors (10 µM) 5 h / Descriptors (10 µM) 24 h / Descriptors (10 µM) 48 h: phenotypic descriptors; for Severity Scores (10 μM) 1 h / Severity Scores (10 μM) 5 h / Severity Scores (10 μM) 24 h / Severity Scores (10 μM) 48 h: scale 0 (no activity) to 4 (maximal activity); for bioactivity against adult S. mansoni: adult schistosomes; for Severity Scores (10 μM) 1 h / Severity Scores (10 μM) 5 h / Severity Scores (10 μM) 24 h / Severity Scores (10 μM) 48 h / bioactivity against adult S. mansoni: 10 μM
# Description: Because the schistosome parasite can present multiple and dynamic phenotypic responses to chemical insult,[16] we employ a constrained nomenclature of descriptors to describe the changes in the parasite as a function of time and concentration (e.g., motility, density, and shape; and in the case of the adult parasite, an inability to adhere to the bottom of the assay dish). These descriptors are converted into severity scores on a scale of 0 (green)–4 (severest/red) that allow for partially quantitative comparisons of compound effects.[1]−[19] […] The descriptors themselves and their respective scores are detailed in the Supporting Information, Table S1. Severity score data are presented in the results (with the corresponding descriptors detailed in the Supporting Information, Tables S2–S8), and eight new analogs developed and synthesized in support of this effort are described. Finally, absorption, distribution, metabolism and excretion (ADME) data of all compounds presented in this work are reported in the Supporting Information, Table S15.
# Table S1. Descriptors and associated severity scores used for S. mansoni adults.
# R (rounded or shape altered 1
# On sides (adults unable to 1
# Shrunk (adults are shorter 1
# surface (tegument) of adults)
# dfailed to create analytical method
# Maintenance of the Schistosoma mansoni life cycle (NMRI isolate), the preparation of adult worms (≥ 42-
# days-old), and their co-incubation with test compounds were as described.7-9 Phenotypic responses were
# visually recorded using a constrained nomenclature and converted to severity scores on a scale from zero
# (no activity) to 4 (maximal activity).8, 9 Use of hamsters for maintaining the S. mansoni life-cycle was
# approved by the Institutional Animal Care and Use Committee of the University of California San Diego.
# The human myelomonocytic cell line THP -1 was grown at 37 °C and 5% CO2 in RPMI-1640 supplemented
# with 10% iFBS, 2 mM glutamate, 100 U/mL penicillin and […] streptomycin.
# Drug toxicity to HepG2 cells .10 HepG2 cells line were obtained from the American Type Culture
# Collection and cultured in Minimal Essential Medium (MEM) supplemented with 0.19% sodium
# bicarbonate, 10% Fetal Bovine Serum, 2 mM L -glutamine, 0.1 mM MEM non-essential amino, 0.009
# mg/mL insulin, 1.76 mg/mL bovine serum albumin. The viability of the cells was measured using the MTT
# (thiazolyl blue reduction) method. Briefly, ninety -six-well plates were seeded with 2.5 × 10^4 cells/well in
# 170 ml of culture medium and incubated overnight in 5% CO 2 at 37 °C. Cells were exposed to different
# experimental compounds in DMSO. After 48 hours incubation, the viability of the cells was assessed using
# MTT (thiazolyl blue reduction) as a dose response assay (11 two -fold serial dilutions) to obtain a calculated
# IC50 determination. 4-Azaindolo[2,1-b]quinazoline-6,12-dione is used as a toxicity positive control and
# each assay plate includes the following 3 additional controls: a) background control: no cells and no drug
# was added, b) target control: cells added but no drugs, and c) DMSO control: same as the target control
# except the culture media contains 0.6% DMSO. Absorbance was determined in all wells using a Perkin
# Elmer, Ensight plate reader. The fifty percent inhibitory concentrations (IC50’s) were determined using
# GraphPad Prism nonlinear regr ession (sigmoidal dose -response, variable slope) equation .
# ADME Experiment Protocols
# Aqueous pH 7.4 Solubility. Compounds were dried down from 10 mM DMSO solutions using centrifugal
# evaporation technique. Phosphate buffer (0.1 M pH 7.4) was added and StirStix were inserted in the glass
# vials, with shaking then performed at a constant temperature of 25 °C for 20 -24 h. This step was followed
# by double centrifugation with a tip wash in between, to ensure that no residues of the dried compounds
# interfere. The solutions were diluted before analysis and quantification using LC/MS/MS was performed.
# [3] = Rat hepatocyte Clint; type: in vitro ADME; settings: rat hepatocytes, intrinsic clearance; read-out: RH CLint
Compound,logD [1],hepatocyte CLint [3],Descriptors (10 µM) 1 h [2],Severity Scores (10 μM) 1 h [2],Descriptors (10 µM) 5 h [2],Severity Scores (10 μM) 5 h [2],Descriptors (10 µM) 24 h [2],Severity Scores (10 μM) 24 h [2],Descriptors (10 µM) 48 h [2],Severity Scores (10 μM) 48 h [2],bioactivity against adult S. mansoni [2]
O=C(O)CN1CCN(c2ncc(-c3ccc4c(Nc5cnccn5)ccnc4c3)cn2)CC1 [3b],0.7,8.9 µL/min/1e6 cells,none,0,none,0,none,0,none,0,no bioactivity
CN1C[C@H]2C[C@@H]1CN2c1ncc(-c2ccc3c(Nc4cnccn4)ccnc3c2)cn1 [4a],2.2,17 µL/min/1e6 cells,none,0,none,0,–,1,–,1,minimal bioactivity was observed after 48 h
CCCN1CCN(c2ncc(-c3ccc4c(Nc5cnccn5)ccnc4c3)cn2)CC1 [4c],4.2,45 µL/min/1e6 cells,none,0,–,1,"On sides, S",2,–,4,activity after 5 h
CCN1CCCN(c2ncc(-c3ccc4c(Nc5cnccn5)ccnc4c3)cn2)CC1 [4e],2.7,30 µL/min/1e6 cells,none,0,none,0,none,0,none,0,–
COc1ccc(NC(=O)c2ccc(-c3cnc(N4CCCN(C)CC4)nc3)cc2O)cc1Cl [7b],3.4,120 µL/min/1e6 cells,none,0,–,1,–,2,–,4,minimal bioactivity after 5 h and potent activity after 48 h
Cc1c(-c2cnc(N3CCN(C)CC3)nc2)ccc2c(Nc3cnccn3)ccnc12 [9a],3.3,52 µL/min/1e6 cells,none,0,none,0,–,1,–,2,moderate potency after 24 h
CN1CCN(c2ncc(-c3ccc4c(Nc5cnccn5)ccnc4c3)cn2)CC1 [compound 3],–,–,none,0,none,0,none,0,none,0,no bioactivity

# The next lines start with results.
logD [1],hepatocyte CLint [3],Compound,Descriptors (10 µM) 1 h [2],Severity Scores (10 μM) 1 h [2],Descriptors (10 µM) 5 h [2],Severity Scores (10 μM) 5 h [2],Descriptors (10 µM) 24 h [2],Severity Scores (10 μM) 24 h [2],Descriptors (10 µM) 48 h [2],Severity Scores (10 μM) 48 h [2],bioactivity against adult S. mansoni [2]
2.6,54 µL/min/1e6 cells,CN1CCCN(c2ncc(-c3ccc4c(Nc5cnccn5)ccnc4c3)cn2)CC1 [4d],none,0,none,0,none,0,none,0,complete loss in activity
2.9,24 µL/min/1e6 cells,Cc1cnc(Nc2ccnc3cc(-c4cnc(N5CCCN(C)CC5)nc4)ccc23)cn1 [5b],none,0,none,0,"Dark, S, on sides",3,–,4,bioactivity recorded after 24 h
1.7,–,CN1CCN(c2ncc(-c3ccc4c(NC5CCOCC5)ccnc4c3)cn2)CC1 [S1d],none,0,none,0,none,0,none,0,no significant bioactivity
